IC50 data for 17 compounds are collected here from ChEMBL document CHEMBL1138236, “Novel aminophenyl benzamide-type histone deacetylase inhibitors with enhanced potency and selectivity” (J Med Chem, 2007).

In one test the target is Histone deacetylase 2 (Homo sapiens, UniProt Q92769).
Another test addresses Histone deacetylase 1 (Homo sapiens, UniProt Q13547).
A further test concerns the target T1, Histone deacetylase 8 (Homo sapiens, UniProt Q9BY41).
T1 sequence (Q9BY41 whole entry): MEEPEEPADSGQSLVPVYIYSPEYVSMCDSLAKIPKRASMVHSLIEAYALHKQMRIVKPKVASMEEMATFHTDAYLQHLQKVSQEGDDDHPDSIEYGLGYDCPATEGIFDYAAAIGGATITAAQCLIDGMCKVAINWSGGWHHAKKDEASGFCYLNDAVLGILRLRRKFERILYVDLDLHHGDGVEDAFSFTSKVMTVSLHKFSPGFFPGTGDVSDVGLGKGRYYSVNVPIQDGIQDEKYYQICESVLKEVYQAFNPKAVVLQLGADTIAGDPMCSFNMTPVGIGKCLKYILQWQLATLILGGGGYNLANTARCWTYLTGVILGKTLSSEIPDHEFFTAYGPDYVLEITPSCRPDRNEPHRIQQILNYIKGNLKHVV
In words: Inhibition of human recombinant HDAC8.

The next test relates to HCT-116. Kind of test: Cytotoxicity against human HCT116 cells by MTT assay. Format: functional, cell-based. For orientation: Tetrazolium assays rely on reduction of a dye to a coloured formazan, in cell work by metabolically active cells.
A short description of test [1]: Cytotoxicity against human mammary epithelial cells by MTT assay. Format: cell-based. The settings on record: Epithelial cell.
The target in the next test is Histone deacetylase 3 (Homo sapiens, UniProt O15379). Kind of test: Inhibition of human recombinant HDAC3.
Histone deacetylase 3, sequence (O15379 whole entry): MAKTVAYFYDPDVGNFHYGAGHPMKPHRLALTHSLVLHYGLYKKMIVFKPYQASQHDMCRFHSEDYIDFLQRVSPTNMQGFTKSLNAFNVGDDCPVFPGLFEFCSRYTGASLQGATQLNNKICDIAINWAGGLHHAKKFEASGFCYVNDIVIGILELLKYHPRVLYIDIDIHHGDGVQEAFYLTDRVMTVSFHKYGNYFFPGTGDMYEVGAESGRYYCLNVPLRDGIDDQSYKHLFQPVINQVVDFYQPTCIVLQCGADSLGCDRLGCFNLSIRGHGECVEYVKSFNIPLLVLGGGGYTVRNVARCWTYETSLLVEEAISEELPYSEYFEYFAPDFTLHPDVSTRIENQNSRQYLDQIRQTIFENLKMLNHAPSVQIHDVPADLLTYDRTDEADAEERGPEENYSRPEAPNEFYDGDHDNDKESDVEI
The next test concerns the target Histone deacetylase. In words: Inhibition of HDAC in 293T cells. Format: cell-based, Homo sapiens.

Structures are written as SMILES. Some results are limits rather than exact numbers.

Histone deacetylase 2, sequence (Q92769 whole entry): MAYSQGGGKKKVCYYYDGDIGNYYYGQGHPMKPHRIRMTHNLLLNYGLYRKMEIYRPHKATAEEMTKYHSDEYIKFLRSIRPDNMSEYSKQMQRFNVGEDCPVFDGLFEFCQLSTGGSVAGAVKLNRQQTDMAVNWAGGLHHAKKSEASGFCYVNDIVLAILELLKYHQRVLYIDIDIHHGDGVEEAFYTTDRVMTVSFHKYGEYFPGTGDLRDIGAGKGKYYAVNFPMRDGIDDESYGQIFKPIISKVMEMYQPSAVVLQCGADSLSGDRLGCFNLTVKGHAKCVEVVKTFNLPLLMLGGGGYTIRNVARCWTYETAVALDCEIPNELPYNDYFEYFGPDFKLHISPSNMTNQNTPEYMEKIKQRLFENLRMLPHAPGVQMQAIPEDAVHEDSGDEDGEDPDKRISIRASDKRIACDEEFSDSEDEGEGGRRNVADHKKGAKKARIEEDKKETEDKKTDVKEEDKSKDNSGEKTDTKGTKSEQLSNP
Histone deacetylase 1, sequence (Q13547 whole entry): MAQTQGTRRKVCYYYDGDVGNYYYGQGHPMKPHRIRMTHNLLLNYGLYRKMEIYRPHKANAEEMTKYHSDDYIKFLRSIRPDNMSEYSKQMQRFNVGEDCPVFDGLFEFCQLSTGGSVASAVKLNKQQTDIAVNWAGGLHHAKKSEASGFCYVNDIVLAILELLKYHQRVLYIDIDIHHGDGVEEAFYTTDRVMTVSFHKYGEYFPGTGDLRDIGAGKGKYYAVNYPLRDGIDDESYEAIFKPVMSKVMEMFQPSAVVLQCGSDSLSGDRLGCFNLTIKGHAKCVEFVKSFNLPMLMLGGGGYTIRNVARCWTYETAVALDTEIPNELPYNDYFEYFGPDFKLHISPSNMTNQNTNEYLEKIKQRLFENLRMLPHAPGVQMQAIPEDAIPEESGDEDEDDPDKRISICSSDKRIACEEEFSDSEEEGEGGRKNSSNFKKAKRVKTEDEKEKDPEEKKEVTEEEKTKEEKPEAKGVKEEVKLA
Description for Histone deacetylase 1: Inhibition of human recombinant HDAC1
Description for Histone deacetylase 2: Inhibition of human recombinant HDAC2

Broadly, the IC50 is the concentration that inhibits the measured activity by half. Consider `COc1ccc(NCc2ccc(C(=O)Nc3ccccc3O)cc2)cc1OC`, for which the midpoint of inhibition against Histone deacetylase 2, the IC50, lay at 200 nM.

Turning to `COc1ccc(NCc2ccc(C(=O)Nc3cc(-c4cc5ccccc5s4)ccc3N)cc2)cc1OC`, the IC50 against Histone deacetylase 1 and against Histone deacetylase 2 was more than 10000 nM each time.

For the compound `COc1ccc(NCc2ccc(C(=O)Nc3ccc(-c4cccs4)cc3N)cc2)cc1OC`, the IC50 against Histone deacetylase 1 and on Histone deacetylase 2 was more than 10000 nM in each case.

On to `CC(=O)Nc1ccc(C(=O)Nc2cc(-c3cccs3)ccc2N)cc1`, for which the IC50 at Histone deacetylase 8 is more than 20000 nM; in the test on HCT-116, 500 nM; in test [1] it was more than 50000 nM.

Take `COc1ccc(C(=O)Nc2ccccc2N)cc1`: the IC50 at Histone deacetylase 3 was 1400 nM; on Histone deacetylase 8, more than 20000 nM; against Histone deacetylase, 3000 nM; in the test with HCT-116, 10000 nM; in test [1], more than 50000 nM; against Histone deacetylase 1 it was 2000 nM. Besides, at Histone deacetylase 2, the IC50 was 900 nM.

The compound `Nc1ccc(-c2cccs2)cc1NC(=O)c1ccc(CNC(=O)OCc2cccnc2)cc1` gave an IC50 against Histone deacetylase 2 of 100 nM.

`COc1ccc(NCc2ccc(C(=O)Nc3cc(-c4ccsc4)ccc3N)cc2)cc1OC` displayed an IC50 against Histone deacetylase 2 of 60 nM.

Consider `Nc1ccccc1NC(=O)c1ccc2nccnc2c1`, for which the IC50 on Histone deacetylase 3 was more than 20000 nM; on Histone deacetylase 8, more than 20000 nM; against Histone deacetylase, 3000 nM; with HCT-116 it was 11000 nM; in test [1] it was more than 50000 nM; against Histone deacetylase 1, 2000 nM. The same compound showed an IC50 against Histone deacetylase 2 of 2000 nM.

`COc1ccc(NCc2ccc(C(=O)Nc3cc(-c4cccs4)ccc3N)cc2)cc1OC`: the IC50 at Histone deacetylase 1 is 50 nM; against Histone deacetylase 2 it was 80 nM.

On to `Nc1ccc(-c2cccs2)cc1NC(=O)c1ccc2nccnc2c1`, for which the IC50 on Histone deacetylase 3 was more than 20000 nM; on Histone deacetylase 8, more than 20000 nM; against Histone deacetylase, 900 nM; with HCT-116, 900 nM; in test [1], 26000 nM; against Histone deacetylase 1, 60 nM. Besides, the IC50 against Histone deacetylase 2 stood at 200 nM.

On to `COc1ccc(NCc2ccc(C(=O)Nc3cc(-c4ccoc4)ccc3N)cc2)cc1OC`, for which the figures for the IC50 against Histone deacetylase 1 and at Histone deacetylase 2 were 50 nM and 70 nM, respectively.

In the case of `O=C(/C=C/c1ccc(CN(CCO)CCc2c[nH]c3ccccc23)cc1)NO` [DACINOSTAT], the results for the IC50 (in the test with HCT-116; in test [1]) were less than 50 nM and 1000 nM, respectively.

Regarding `COc1ccc(NCc2ccc(C(=O)Nc3cc(-c4ccccc4)ccc3N)cc2)cc1OC`, the IC50 on Histone deacetylase 2 is 100 nM.

For `COc1ccc(C(=O)Nc2cc(-c3cccs3)ccc2N)cc1`, the IC50 at Histone deacetylase 3 was more than 20000 nM; at Histone deacetylase 8 it was more than 20000 nM; against Histone deacetylase, 150 nM; in the test on HCT-116, 400 nM; in test [1], more than 50000 nM; against Histone deacetylase 1, 50 nM. The compound further showed an IC50 at Histone deacetylase 2 of 200 nM.

For the compound `COc1ccc(NCc2ccc(C(=O)Nc3cc(-c4cccs4)ccc3O)cc2)cc1OC`, the results for the IC50 against Histone deacetylase 1 and against Histone deacetylase 2 were 40 nM and 60 nM, respectively.

For the compound `COc1ccc(NCc2ccc(C(=O)Nc3ccccc3N)cc2)cc1OC`, the IC50 amounted to 440 nM against Histone deacetylase 1 and 500 nM on Histone deacetylase 2.

`CC(=O)Nc1ccc(C(=O)Nc2ccccc2N)cc1` [TACEDINALINE]: the IC50 in the test with HCT-116 was 4000 nM; in test [1], more than 50000 nM.
